According to US10954269B2, “Anti-inflammatory tripeptides” (Dr. August Wolff Gmbh & Co. KG Arzneimittel, priority 2013, dated 2021):

Legend:
[1] = tested on: human keratinocyte cell line (HaCaT); assay: Cytokine secretion on protein level in activated human keratinocyte cell line HaCaT (13-plex FACS / Luminex, supernatant); type: cell-based; settings: substance 10^−9M
Outline: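 Stimulus: PMA/Ionomycin or IFN-γ, 48 h; cells: HaCaT or human peripheral-blood T-cells; tripeptide treatment; readout: supernatant cytokines via 13-plex FACS or Luminex, 48–72 h post-stimulation.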

primary murine T-cells = assay: Cytokine secretion on protein level in activated primary murine T-cells (13-plex FACS / Luminex, supernatant); type: cell-based, C57BL/6 mice; settings: for IL-1 cytokine concentration / IL-2 cytokine concentration / IL-4 cytokine concentration / IL-5 cytokine concentration / IL-6 cytokine concentration / IL-10 cytokine concentration / IL-13 cytokine concentration / IL-17 cytokine concentration / IL-21 cytokine concentration / IL-22 cytokine concentration / IL-27 cytokine concentration / TNF-α cytokine concentration / IFN-γ cytokine concentration: substance 10^−9M
Outline: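 T-cells from secondary lymphatic organs of naïve C57BL/6 mice, stimulated with PMA/Ionomycin or IFN-γ; supernatant cytokines measured by 13-plex FACS 48 h and 72 h after stimulation. In another run, PMA/Ionomycin-stimulated cells received compounds at 10^−7, 10^−9 and 10^−11 M, with IFN-γ, IL-17 and IL-10 measured by Luminex.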

primary human T-cells = assay: Cytokine secretion on protein level in activated primary human T-cells (13-plex FACS / Luminex, supernatant); type: cell-based; settings: for IL-1 cytokine concentration / IL-2 cytokine concentration / IL-4 cytokine concentration / IL-5 cytokine concentration / IL-6 cytokine concentration / IL-9 cytokine concentration / IL-10 cytokine concentration / IL-12p70 cytokine concentration / IL-13 cytokine concentration / IL-17 cytokine concentration / IL-22 cytokine concentration / TNF-α cytokine concentration / INF-α cytokine concentration: substance 10^−9M
Outline: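 PMA/Ionomycin- or IFN-γ-activated cells (48 h) treated with tripeptides; supernatant 13-plex FACS at 48 h and 72 h post-stimulation. Luminex run: PMA/Ionomycin plus compound at 10^−7, 10^−9, 10^−11 M; IFN-γ, IL-17, IL-10 for T cells, IFN-γ for HaCaT.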

[2] = HaCaT stimulated with PMA/Ionomycin
[3] = primary murine T-cells stimulated with IFN-γ
[4] = primary murine T-cells stimulated with PBS
[5] = primary murine T-cells stimulated with PMA/Ionomycin
[6] = primary human T-cells stimulated with IFN-γ
[7] = primary human T-cells stimulated with PBS
[8] = primary human T-cells stimulated with PMA/Ionomycin

## N^α,N^α-dimethyl-(L)-Lys-(D)-Pro-N^α-methyl-(L)-Val-OH [Example 5]
[1]; HaCaT stimulated with IFN-γ
  IL-1 cytokine concentration: 0 pg/mL
  IL-2 cytokine concentration: 0 pg/mL
  IL-4 cytokine concentration: 0 pg/mL
  IL-5 cytokine concentration: 0 pg/mL
  IL-6 cytokine concentration: 415.82 pg/mL
  IL-9 cytokine concentration: 0 pg/mL
  IL-10 cytokine concentration: 41.86 pg/mL
  IL-12p70 cytokine concentration: 0 pg/mL
  IL-13 cytokine concentration: 1974.31 pg/mL
  IL-17 cytokine concentration: 0 pg/mL
  IL-22 cytokine concentration: 0 pg/mL
  TNF-α cytokine concentration: 0 pg/mL
[1]; HaCaT stimulated with PBS
  IFN-γ cytokine concentration: 0 pg/mL
  IL-1 cytokine concentration: 0 pg/mL
  IL-2 cytokine concentration: 149.51 pg/mL
  IL-4 cytokine concentration: 152.8 pg/mL
  IL-5 cytokine concentration: 133.49 pg/mL
  IL-6 cytokine concentration: 218.63 pg/mL
  IL-9 cytokine concentration: 28.51 pg/mL
  IL-10 cytokine concentration: 89.86 pg/mL
  IL-12p70 cytokine concentration: 0 pg/mL
  IL-13 cytokine concentration: 0 pg/mL
  IL-17 cytokine concentration: 18.83 pg/mL
  IL-22 cytokine concentration: 0 pg/mL
  TNF-α cytokine concentration: 0 pg/mL
[1]; [2]
  IFN-γ cytokine concentration: 199.65 pg/mL
  IL-1 cytokine concentration: 104.98 pg/mL
  IL-2 cytokine concentration: 145.65 pg/mL
  IL-4 cytokine concentration: 168.7 pg/mL
  IL-5 cytokine concentration: 1.93 pg/mL
  IL-6 cytokine concentration: 379.04 pg/mL
  IL-9 cytokine concentration: 0 pg/mL
  IL-10 cytokine concentration: 59.49 pg/mL
  IL-12p70 cytokine concentration: 0 pg/mL
  IL-13 cytokine concentration: 0 pg/mL
  IL-17 cytokine concentration: 95.44 pg/mL
  IL-22 cytokine concentration: 0 pg/mL
  TNF-α cytokine concentration: 27.45 pg/mL
Primary murine T-cells; activated primary murine T-cells
  secretion / expression of pro-inflammatory cytokines (supernatant): immunomodulatory effects were seen
Primary murine T-cells; [3]
  IL-1 cytokine concentration: 49.65 pg/mL
  IL-2 cytokine concentration: 89.76 pg/mL
  IL-4 cytokine concentration: 47.55 pg/mL
  IL-5 cytokine concentration: 263.27 pg/mL
  IL-6 cytokine concentration: 127.92 pg/mL
  IL-10 cytokine concentration: 1359.92 pg/mL
  IL-13 cytokine concentration: 0 pg/mL
  IL-17 cytokine concentration: 97.22 pg/mL
  IL-21 cytokine concentration: 0 pg/mL
  IL-22 cytokine concentration: 32.03 pg/mL
  IL-27 cytokine concentration: 20.07 pg/mL
  TNF-α cytokine concentration: 24.23 pg/mL
Primary murine T-cells; [4]
  IFN-γ cytokine concentration: 232.8 pg/mL
  IL-1 cytokine concentration: 56.42 pg/mL
  IL-2 cytokine concentration: 151.25 pg/mL
  IL-4 cytokine concentration: 53.6 pg/mL
  IL-5 cytokine concentration: 209.32 pg/mL
  IL-6 cytokine concentration: 117.95 pg/mL
  IL-10 cytokine concentration: 1311.94 pg/mL
  IL-13 cytokine concentration: 0 pg/mL
  IL-17 cytokine concentration: 0 pg/mL
  IL-21 cytokine concentration: 13.71 pg/mL
  IL-22 cytokine concentration: 27.66 pg/mL
  IL-27 cytokine concentration: 81.64 pg/mL
  TNF-α cytokine concentration: 32.89 pg/mL
Primary murine T-cells; [5]
  IFN-γ cytokine concentration: 2075.42 pg/mL
  IL-1 cytokine concentration: 178.79 pg/mL
  IL-2 cytokine concentration: 112.62 pg/mL
  IL-4 cytokine concentration: 81.4 pg/mL
  IL-5 cytokine concentration: 246.42 pg/mL
  IL-6 cytokine concentration: 189.2 pg/mL
  IL-10 cytokine concentration: 1233.45 pg/mL
  IL-13 cytokine concentration: 0 pg/mL
  IL-17 cytokine concentration: 0 pg/mL
  IL-21 cytokine concentration: 67.28 pg/mL
  IL-22 cytokine concentration: 29.38 pg/mL
  IL-27 cytokine concentration: 51.58 pg/mL
  TNF-α cytokine concentration: 29.15 pg/mL
Primary human T-cells; activated primary human T-cells
  secretion / expression of pro-inflammatory cytokines (supernatant): immunomodulatory effects were seen
Primary human T-cells; [6]
  IL-1 cytokine concentration: 0 pg/mL
  IL-2 cytokine concentration: 0 pg/mL
  IL-4 cytokine concentration: 78.18 pg/mL
  IL-5 cytokine concentration: 0 pg/mL
  IL-6 cytokine concentration: 42.52 pg/mL
  IL-9 cytokine concentration: 5.56 pg/mL
  IL-10 cytokine concentration: 61 pg/mL
  IL-12p70 cytokine concentration: 0 pg/mL
  IL-13 cytokine concentration: 29.25 pg/mL
  IL-17 cytokine concentration: 26.44 pg/mL
  IL-22 cytokine concentration: 0 pg/mL
  TNF-α cytokine concentration: 12.52 pg/mL
Primary human T-cells; [7]
  IL-1 cytokine concentration: 0 pg/mL
  IL-2 cytokine concentration: 0 pg/mL
  IL-4 cytokine concentration: 0 pg/mL
  IL-5 cytokine concentration: 0 pg/mL
  IL-6 cytokine concentration: 94.11 pg/mL
  IL-9 cytokine concentration: 6.74 pg/mL
  IL-10 cytokine concentration: 119.04 pg/mL
  IL-12p70 cytokine concentration: 0 pg/mL
  IL-13 cytokine concentration: 35.75 pg/mL
  IL-17 cytokine concentration: 0 pg/mL
  IL-22 cytokine concentration: 0 pg/mL
  INF-α cytokine concentration: 0 pg/mL
  TNF-α cytokine concentration: 0 pg/mL
Primary human T-cells; [8]
  IL-1 cytokine concentration: 748 pg/mL
  IL-2 cytokine concentration: 4369.09 pg/mL
  IL-4 cytokine concentration: 92.43 pg/mL
  IL-5 cytokine concentration: 392.66 pg/mL
  IL-6 cytokine concentration: 1051.51 pg/mL
  IL-9 cytokine concentration: 193.58 pg/mL
  IL-10 cytokine concentration: 789.38 pg/mL
  IL-12p70 cytokine concentration: 0 pg/mL
  IL-13 cytokine concentration: 912.49 pg/mL
  IL-17 cytokine concentration: 1164.75 pg/mL
  IL-22 cytokine concentration: 0 pg/mL
  INF-α cytokine concentration: 8770.62 pg/mL
  TNF-α cytokine concentration: 2187.46 pg/mL
